Source: US12187723B2 (BRISTOL-MYERS SQUIBB COMPANY, priority 2019, dated 2025)

Tests used:
human TLR8 = target: T1, human TLR8 (Homo sapiens, UniProt Q9NR97); test: TLR8 inhibition reporter assay (HEK-Blue SEAP); assay type: cell-based; conditions: HEK-Blue cells overexpressing human TLR8, R848 15.9 μM, 22 hour incubation
T1 construct: host or cells: HEK-Blue cells
T1 sequence (Q9NR97 27-1041): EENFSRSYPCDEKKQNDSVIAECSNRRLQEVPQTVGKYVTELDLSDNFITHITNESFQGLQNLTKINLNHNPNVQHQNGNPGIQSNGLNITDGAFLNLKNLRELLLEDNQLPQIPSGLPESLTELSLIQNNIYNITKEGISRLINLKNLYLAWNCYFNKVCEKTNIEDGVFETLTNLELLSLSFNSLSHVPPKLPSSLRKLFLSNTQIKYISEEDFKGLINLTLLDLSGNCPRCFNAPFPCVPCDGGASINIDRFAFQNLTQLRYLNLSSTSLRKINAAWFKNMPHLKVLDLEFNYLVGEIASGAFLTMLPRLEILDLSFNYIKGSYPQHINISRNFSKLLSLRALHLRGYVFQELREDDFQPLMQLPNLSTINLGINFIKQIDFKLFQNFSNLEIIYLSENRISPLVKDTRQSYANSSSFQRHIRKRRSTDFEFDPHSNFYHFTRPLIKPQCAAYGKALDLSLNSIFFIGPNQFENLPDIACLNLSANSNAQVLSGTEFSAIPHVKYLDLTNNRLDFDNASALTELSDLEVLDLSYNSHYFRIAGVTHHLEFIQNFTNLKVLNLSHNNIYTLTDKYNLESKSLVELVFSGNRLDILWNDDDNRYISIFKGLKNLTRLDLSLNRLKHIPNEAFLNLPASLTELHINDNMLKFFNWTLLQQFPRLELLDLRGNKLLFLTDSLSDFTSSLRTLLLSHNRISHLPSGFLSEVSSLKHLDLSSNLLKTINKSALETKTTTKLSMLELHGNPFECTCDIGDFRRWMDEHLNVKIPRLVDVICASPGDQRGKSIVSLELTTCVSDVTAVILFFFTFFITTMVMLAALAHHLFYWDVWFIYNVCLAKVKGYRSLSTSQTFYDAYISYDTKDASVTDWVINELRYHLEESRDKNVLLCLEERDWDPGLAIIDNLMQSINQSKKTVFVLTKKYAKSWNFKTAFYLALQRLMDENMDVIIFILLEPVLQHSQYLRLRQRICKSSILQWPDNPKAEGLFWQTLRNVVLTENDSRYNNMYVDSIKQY
Outline: (§1)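 HEK-Blue cells overexpressing human TLR7, TLR8 or TLR9 carry a SEAP reporter driven by NF-κB/AP-1 sites. Compounds (0.05 nM–50 μM) were preincubated 30 min at room temperature, then cells were stimulated with gardiquimod 7.5 μM (TLR7), R848 15.9 μM (TLR8) or ODN2006 5 nM (TLR9) for 22 h at 37 °C.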

human TLR9 = target: T2, human TLR9 (Homo sapiens, UniProt Q9NR96); test: TLR9 inhibition reporter assay (HEK-Blue SEAP); assay type: cell-based; conditions: HEK-Blue cells overexpressing human TLR9, ODN2006 5 nM, 22 hour incubation
T2 construct: host or cells: HEK-Blue cells
T2 sequence (Q9NR96 26-1032): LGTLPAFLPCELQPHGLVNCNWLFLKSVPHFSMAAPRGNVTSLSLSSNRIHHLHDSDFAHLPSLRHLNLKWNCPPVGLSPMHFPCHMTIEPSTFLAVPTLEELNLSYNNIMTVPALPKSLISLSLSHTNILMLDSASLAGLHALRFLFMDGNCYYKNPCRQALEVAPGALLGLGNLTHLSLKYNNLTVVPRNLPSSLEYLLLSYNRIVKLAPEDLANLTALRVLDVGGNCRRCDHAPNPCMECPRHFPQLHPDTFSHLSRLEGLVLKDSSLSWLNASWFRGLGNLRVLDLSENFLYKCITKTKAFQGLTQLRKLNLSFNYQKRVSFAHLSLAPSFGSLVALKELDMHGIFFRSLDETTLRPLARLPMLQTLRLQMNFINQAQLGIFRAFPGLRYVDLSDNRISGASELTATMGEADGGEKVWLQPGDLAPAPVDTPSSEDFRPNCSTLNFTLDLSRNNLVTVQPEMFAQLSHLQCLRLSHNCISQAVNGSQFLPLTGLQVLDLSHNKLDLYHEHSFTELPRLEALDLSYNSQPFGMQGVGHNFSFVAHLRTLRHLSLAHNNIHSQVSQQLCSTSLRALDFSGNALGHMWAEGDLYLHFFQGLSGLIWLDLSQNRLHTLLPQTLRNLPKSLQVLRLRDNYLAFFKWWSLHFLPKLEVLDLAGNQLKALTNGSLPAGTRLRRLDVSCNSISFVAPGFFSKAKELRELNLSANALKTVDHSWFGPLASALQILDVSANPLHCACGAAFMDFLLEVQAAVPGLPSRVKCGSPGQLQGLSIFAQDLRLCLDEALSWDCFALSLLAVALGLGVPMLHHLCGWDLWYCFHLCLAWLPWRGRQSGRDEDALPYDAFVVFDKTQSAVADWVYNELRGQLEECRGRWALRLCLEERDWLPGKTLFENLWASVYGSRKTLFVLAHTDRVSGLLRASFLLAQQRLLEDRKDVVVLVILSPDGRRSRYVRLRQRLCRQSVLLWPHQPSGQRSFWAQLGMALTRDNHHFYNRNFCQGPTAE
Outline: as §1

Row | SMILES | IC50 (human TLR8) | IC50 (human TLR9)
1 | CCc1cc2c(cc1-c1cc(OC)c3ncnn3c1)[nH]c(=O)n2[C@@H]1CCCN(CC2CCC2)C1 [Example 181, (R)-1-(1-(cyclobutylmethyl)piperidin-3-yl)-6-ethyl-5-(8-methoxy-[1,2,4]triazolo[1,5-a]pyridin-6-yl)-1,3-dihydro-2H-benzo[d]imidazol-2-one] | 1.68 nM | 6770 nM
2 | CCc1cc2c(cc1-c1cc(OC)c3ncnn3c1)[nH]c(=O)n2[C@@H]1CCCN(CC2CC2)C1 [Example 182, (R)-1-(1-(cyclopropylmethyl)piperidin-3-yl)-6-ethyl-5-(8-methoxy-[1,2,4]triazolo[1,5-a]pyridin-6-yl)-1,3-dihydro-2H-benzo[d]imidazol-2-one] | 2.31 nM | 7940 nM
3 | CCc1cc2c(cc1-c1cc(OC)c3ncnn3c1)[nH]c(=O)n2[C@@H]1CCCN(CCC(F)(F)F)C1 [Example 183, (R)-6-ethyl-5-(8-methoxy-[1,2,4]triazolo[1,5-a]pyridin-6-yl)-1-(1-(3,3,3-trifluoropropyl)piperidin-3-yl)-1,3-dihydro-2H-benzo[d]imidazol-2-one] | 6.44 nM | 33500 nM
4 | CCc1cc2c(cc1-c1cc(OC)c3ncnn3c1)[nH]c(=O)n2[C@@H]1CCCN(C2CCOCC2)C1 [Example 184, (R)-6-ethyl-5-(8-methoxy-[1,2,4]triazolo[1,5-a]pyridin-6-yl)-1-(1-(tetrahydro-2H-pyran-4-yl)piperidin-3-yl)-1,3-dihydro-2H-benzo[d]imidazol-2-one] | 14.3 nM | 26600 nM
5 | Cc1c(-c2cc3[nH]c(=O)n([C@H]4CC[C@@H](N(C)C)CC4)c3cc2C(C)C)cn2ncnc2c1C [Example 185, 5-(7,8-dimethyl-[1,2,4]triazolo[1,5-a]pyridin-6-yl)-1-((1s,4s)-4-(dimethylamino)cyclohexyl)-6-isopropyl-1,3-dihydro-2H-benzo[d]imidazol-2-one] | 0.36 nM | 7070 nM
6 | Cc1c(-c2cc3[nH]c(=O)n([C@H]4CC[C@@H](NC(C)C)CC4)c3cc2C(C)C)cn2ncnc2c1C [Example 186, 5-(7,8-dimethyl-[1,2,4]triazolo[1,5-a]pyridin-6-yl)-6-isopropyl-1-((1s,4s)-4-(isopropylamino)cyclohexyl)-1,3-dihydro-2H-benzo[d]imidazol-2-one] | 0.13 nM | 5990 nM
7 | Cc1c(-c2cc3[nH]c(=O)n([C@H]4CC[C@@H](NC5CCOCC5)CC4)c3cc2C(C)C)cn2ncnc2c1C [Example 187, 5-(7,8-dimethyl-[1,2,4]triazolo[1,5-a]pyridin-6-yl)-6-isopropyl-1-((1s,4s)-4-((tetrahydro-2H-pyran-4-yl)amino)cyclohexyl)-1,3-dihydro-2H-benzo[d]imidazol-2-one] | 0.8 nM | 12800 nM
8 | Cc1c(-c2cc3[nH]c(=O)n([C@H]4CC[C@@H](NC5COC5)CC4)c3cc2C(C)C)cn2ncnc2c1C [Example 188, 5-(7,8-dimethyl-[1,2,4]triazolo[1,5-a]pyridin-6-yl)-6-isopropyl-1-((1s,4s)-4-(oxetan-3-ylamino)cyclohexyl)-1,3-dihydro-2H-benzo[d]imidazol-2-one] | 0.95 nM | 22200 nM
9 | CCN[C@H]1CC[C@@H](n2c(=O)[nH]c3cc(-c4cn5ncnc5c(C)c4C)c(C(C)C)cc32)CC1 [Example 189, 5-(7,8-dimethyl-[1,2,4]triazolo[1,5-a]pyridin-6-yl)-1-((1s,4s)-4-(ethylamino)cyclohexyl)-6-isopropyl-1,3-dihydro-2H-benzo[d]imidazol-2-one] | 3.11 nM | > 50000 nM
10 | Cc1c(-c2cc3[nH]c(=O)n([C@H]4CC[C@@H](NCC(C)(C)C)CC4)c3cc2C(C)C)cn2ncnc2c1C [Example 190, 5-(7,8-dimethyl-[1,2,4]triazolo[1,5-a]pyridin-6-yl)-6-isopropyl-1-((1s,4s)-4-(neopentylamino)cyclohexyl)-1,3-dihydro-2H-benzo[d]imidazol-2-one] | 0.08 nM | 5050 nM
11 | COc1cc(-c2cc3[nH]c(=O)n([C@H]4CC[C@@H](N(C)C)CC4)c3cc2C(C)C)cn2ncnc12 [Example 191, 1-((1s,4s)-4-(dimethylamino)cyclohexyl)-6-isopropyl-5-(8-methoxy-[1,2,4]triazolo[1,5-a]pyridin-6-yl)-1,3-dihydro-2H-benzo[d]imidazol-2-one] | 0.58 nM | 11700 nM
12 | COc1cc(-c2cc3[nH]c(=O)n([C@H]4CC[C@@H](NC(C)C)CC4)c3cc2C(C)C)cn2ncnc12 [Example 192, 6-isopropyl-1-((1s,4s)-4-(isopropylamino)cyclohexyl)-5-(8-methoxy-[1,2,4]triazolo[1,5-a]pyridin-6-yl)-1,3-dihydro-2H-benzo[d]imidazol-2-one] | 0.44 nM | 16600 nM
13 | COc1cc(-c2cc3[nH]c(=O)n([C@H]4CC[C@@H](NC5CCOCC5)CC4)c3cc2C(C)C)cn2ncnc12 [Example 193, 6-isopropyl-5-(8-methoxy-[1,2,4]triazolo[1,5-a]pyridin-6-yl)-1-((1s,4s)-4-((tetrahydro-2H-pyran-4-yl)amino)cyclohexyl)-1,3-dihydro-2H-benzo[d]imidazol-2-one] | 0.48 nM | 21400 nM
14 | CCC(CC)CN[C@H]1CC[C@@H](n2c(=O)[nH]c3cc(-c4cc(OC)c5ncnn5c4)c(C(C)C)cc32)CC1 [Example 194] | 0.11 nM | 2080 nM
15 | CCCN[C@H]1CC[C@@H](n2c(=O)[nH]c3cc(-c4cc(OC)c5ncnn5c4)c(C(C)C)cc32)CC1 [Example 195, 6-isopropyl-5-(8-methoxy-[1,2,4]triazolo[1,5-a]pyridin-6-yl)-1-((1 s,4s)-4-(propylamino)cyclohexyl)-1,3-dihydro-2H-benzo[d]imidazol-2-one] | 0.27 nM | 13900 nM
16 | COc1cc(-c2cc3[nH]c(=O)n([C@H]4CC[C@@H](NCC5CCOCC5)CC4)c3cc2C(C)C)cn2ncnc12 [Example 196, 6-isopropyl-5-(8-methoxy-[1,2,4]triazolo[1,5-a]pyridin-6-yl)-1-((1s,4s)-4-(((tetrahydro-2H-pyran-4-yl)methyl)amino)cyclohexyl)-1,3-dihydro-2H-benzo[d]imidazol-2-one] | 0.05 nM | 8960 nM
17 | COc1cc(-c2cc3[nH]c(=O)n([C@H]4CC[C@@H](NCC(C)(C)C)CC4)c3cc2C(C)C)cn2ncnc12 [Example 197, 6-isopropyl-5-(8-methoxy-[1,2,4]triazolo[1,5-a]pyridin-6-yl)-1-((1s,4s)-4-(neopentylamino)cyclohexyl)-1,3-dihydro-2H-benzo[d]imidazol-2-one] | 0.04 nM | 6260 nM
18 | CCC(CC)CN[C@H]1CC[C@@H](n2c(=O)[nH]c3cc(-c4cn5ncnc5c(C)c4C)c(C(C)C)cc32)CC1 [Example 198] | 0.15 nM | 2130 nM
